{"source": "patent US10519176B2", "about": "“Crystalline forms” (GRUNENTHAL GMBH, priority 2010, dated 2019)", "origin": "cited, not measured here", "key": {"[1]": {"settings": "according to FDA SBA"}, "[2]": {"settings": "according to FDA SBA", "remark": "listed apart in the source"}, "[3]": {"settings": "in vivo"}}, "data": [{"smiles": "O=P(O)(O)C(O)(Cn1ccnc1)P(=O)(O)O", "note": "[Zoledronic acid, (1-hydroxy-2-imidazol-1-yl-1-phosphono-ethyl)phosphonic acid]", "values": [{"measurement": "solubility in 0.1 N HCl solution", "setting": "0.1 N HCl solution", "value": "sparingly soluble"}, {"measurement": "solubility in 0.1 N NaOH", "setting": "0.1 N NaOH", "value": "freely soluble"}, {"measurement": "solubility in various organic solvents", "setting": "various organic solvents", "value": "practically insoluble"}, {"measurement": "solubility in water", "setting": "water", "value": "sparingly soluble"}, {"measurement": "oral bioavailability", "setting": "[1]", "value": "approximately 1%"}, {"measurement": "permeability in the GI tract", "setting": "[2]", "value": "poor permeability"}, {"measurement": "gastric and intestinal irritations", "setting": "[3]", "value": "severe gastric and intestinal irritations"}]}]}
